From PMC9103705, “Effects of Drugs Formerly Proposed for COVID-19 Treatment on Connexin43 Hemichannels” (International Journal of Molecular Sciences, 2022)

What was measured:
[1] = retrieved from the literature; cited from earlier work
DUBCA-hCx43 cells = test: MTT cell viability assay for CC10 determination, 24 h drug exposure; details: 24 h exposure; for CC10 (concentration inducing 10% cell death): extrapolated from concentration-response curves
Cx43 mRNA expression = test: RT-qPCR analysis of Cx43 mRNA expression; type: cell-based, human; details: DUBCA-hCx43 cells, 24 h; for Cx43 mRNA expression: CC10, CC10/2 and CC10/10 (all tested concentrations)
Cx43 hemichannels = molecular target: T1, Cx43 hemichannels (Homo sapiens, UniProt P17302); test: Cx43 hemichannel activity assay (extracellular ATP release, bioluminescence); type: cell-based; details: HEK-hCx43 cells; for extracellular ATP levels at lower concentrations: CC10/2: 8.5 µM azithromycin, 7 µM chloroquine, 6.25 µM hydroxychloroquine; for extracellular ATP release (Cx43 hemichannel activity) compared to DF control: 30 min exposure in DF buffer; for extracellular ATP release at highest applied concentration: lopinavir 190 µM, remdesivir 500 µM (CC10 x10)
T1 construct: expressed in transfected cells; host or cells: HEK293 (HEK-hCx43, transduced)
T1 sequence (P17302 whole entry): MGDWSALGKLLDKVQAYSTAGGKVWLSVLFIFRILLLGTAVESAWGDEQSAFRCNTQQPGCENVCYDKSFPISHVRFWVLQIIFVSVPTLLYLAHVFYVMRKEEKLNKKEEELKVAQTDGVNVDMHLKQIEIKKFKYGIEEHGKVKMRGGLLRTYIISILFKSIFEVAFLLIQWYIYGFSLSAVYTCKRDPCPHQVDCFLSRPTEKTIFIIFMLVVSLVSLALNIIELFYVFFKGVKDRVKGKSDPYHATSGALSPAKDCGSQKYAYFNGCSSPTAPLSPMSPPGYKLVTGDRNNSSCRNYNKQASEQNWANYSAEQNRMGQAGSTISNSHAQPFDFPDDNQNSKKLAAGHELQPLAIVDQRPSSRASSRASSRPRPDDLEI

[2] = tested on: gap junctional communication; details: cited from earlier work
Cx43 protein expression = details: cited from earlier work

SMILES | Cmax (total peak plasma concentration at therapeutic dose) [1] | CC10 (concentration inducing 10% cell death) (DUBCA-hCx43 cells) [µM] | Cx43 mRNA expression (Cx43 mRNA expression) | extracellular ATP levels at lower concentrations (Cx43 hemichannels; 30 min) | extracellular ATP release (Cx43 hemichannel activity) compared to DF control (Cx43 hemichannels) | gap junctional communication [2] | cytotoxic effect on the cells (DUBCA-hCx43 cells) | concentration dependence of ATP release (Cx43 hemichannels; 30 min, stepwise increase in ATP at lower concentrations) | Cx43 protein expression in cardiomyocytes (Cx43 protein expression) | extracellular ATP release at highest applied concentration (Cx43 hemichannels; 30 min) | Cx43 mRNA expression at 5 µM (Cx43 mRNA expression; effect only seen at 5 µM)
CC[C@H]1OC(=O)[C@H](C)[C@@H](O[C@H]2C[C@@](C)(OC)[C@@H](O)[C@H](C)O2)[C@H](C)[C@@H](O[C@@H]2O[C@H](C)C[C@H](N(C)C)[C@H]2O)[C@](C)(O)C[C@@H](C)CN(C)[C@H](C)[C@@H](O)[C@]1(C)O [Azithromycin (dihydrate), Azithromycin] | 0.52 [23] µM | 17 | no effects | increase extracellular ATP levels |  |  |  |  |  |  | 
CC1(C)[C@@H](OC(=O)CCC(=O)O)CC[C@]2(C)[C@H]3C(=O)C=C4[C@@H]5C[C@@](C)(C(=O)O)CC[C@]5(C)CC[C@@]4(C)[C@]3(C)CC[C@@H]12 [Cbx, carbenoxolone] |  |  |  |  | lower ATP levels |  |  |  |  |  | 
CCN(CC)CCCC(C)Nc1ccnc2cc(Cl)ccc12 (stereo not drawn) [Chloroquine (diphosphate), Chloroquine] | 0.81 [24] µM |  | no effects | increase extracellular ATP levels |  | did not had any effects |  |  |  |  | 
C[C@@H]1C[C@H]2[C@@H]3CCC4=CC(=O)C=C[C@]4(C)[C@@]3(F)[C@@H](O)C[C@]2(C)[C@@]1(O)C(=O)CO [Dexamethasone] | 0.63 [25] µM | >200 | no effects |  | not significantly different from the DF control | reduce gap junctional communication | did not show any cytotoxic effect | might have a concentration-dependent effect on ATP release |  |  | 
NC(=O)c1nc(F)c[nH]c1=O [Favipiravir] | 53.4 [26] µM | >400 | no effects |  | not significantly different from the DF control |  | did not show any cytotoxic effect |  |  |  | 
CCN(CCO)CCCC(C)Nc1ccnc2cc(Cl)ccc12 (stereo not drawn) [Hydroxychloroquine (sulphate), Hydroxychloroquine] |  | 12.5 | no effects | increase extracellular ATP levels |  |  |  |  | induced an elevation of Cx43 protein expression |  | 
Cc1cccc(C)c1OCC(=O)N[C@@H](Cc1ccccc1)[C@@H](O)C[C@H](Cc1ccccc1)NC(=O)[C@H](C(C)C)N1CCCNC1=O [Lopinavir] |  | 19 | no effects |  |  |  |  |  |  | released a significantly higher amount of ATP | 
CCC(CC)COC(=O)[C@H](C)N[P@](=O)(OC[C@H]1O[C@@](C#N)(c2ccc3c(N)ncnn23)[C@H](O)[C@@H]1O)Oc1ccccc1 [Remdesivir] | 9.03 [29] µM | 50 |  |  |  |  |  |  |  | released a significantly higher amount of ATP | decrease in Cx43 mRNA expression
NC(=O)c1ncn([C@@H]2O[C@H](CO)[C@@H](O)[C@H]2O)n1 [Ribavirin] |  | 10 | no effects |  | not significantly different from the DF control |  |  |  |  |  | 
CC(C)c1nc(CN(C)C(=O)N[C@H](C(=O)N[C@@H](Cc2ccccc2)C[C@H](O)[C@H](Cc2ccccc2)NC(=O)OCc2cncs2)C(C)C)cs1 [Ritonavir] | 1.17 [31] µM | 16 | no effects |  | not significantly different from the DF control |  |  |  |  |  | 
